Measurements reported in patent publication US5099015A, “Trifluoromethyl 1-carba(1-dethia)cephems” (Eli Lilly and Company, priority 1991, dated 1992).
≈ marks a conversion by molar mass, not a printed value. Like-named read-outs stand apart in the source and are kept apart here.

How the values were obtained:
Experiment in all cases: Agar dilution antibacterial test (MIC)
Format in all cases: cell-based
Acom AC12 = test system: Acom AC12
Protocol: (§1) Fresh overnight cultures of test bacteria were diluted to approximately 1x(10)4 cells/microliter and applied in one microliter volumes to the surfaces of the agar plates. The innoculated plates were incubated overnight at 35° C. in ambient air. Minimum inhibitory concentration (mic) endpoints were recorded as the lowest antibiotic concentrations in micrograms per milliliter that inhibited the development of visible growth on the plates. The following summarizes the results of such tests with the compounds of the examples listed above.

Citro CF17 = test system: Citro CF17
Protocol: as §1

[1] = test system: Enterobacter aerogenes C32
Protocol: as §1

[2] = test system: Enterobacter aerogenes EB17
Protocol: as §1

[3] = test system: Enterobacter cloacae 265A
Protocol: as §1

Enterobacter cloacae EB5 = test system: Enterobacter cloacae EB5
Protocol: as §1

[4] = test system: Enterococcus faecalis 2041
Protocol: as §1

Enterococcus faecium X66 = test system: Enterococcus faecium X66
Protocol: as §1

Escherichia coli EC14 = test system: Escherichia coli EC14
Protocol: as §1

Escherichia coli N10 = test system: Escherichia coli N10
Protocol: as §1

Escherichia coli TEM = test system: Escherichia coli TEM
Protocol: as §1

[5] = test system: Haemophilus influenzae 76
Protocol: as §1

[6] = test system: Haemophilus influenzae C.L.
Protocol: as §1

[7] = test system: Klebsiella pneumoniae KAE
Protocol: as §1

[8] = test system: Klebsiella pneumoniae X26
Protocol: as §1

[9] = test system: Klebsiella pneumoniae X68
Protocol: as §1

Morg morg PR15 = test system: Morg morg PR15
Protocol: as §1

Proteus incon PR33 = test system: Proteus incon PR33
Protocol: as §1

Proteus rett C24 = conditions: Proteus rett C24
Protocol: as §1

Salmonella 1335 = test system: Salmonella 1335
Protocol: as §1

Salmonella X514 = test system: Salmonella X514
Protocol: as §1

Serratia SE3 = test system: Serratia SE3
Protocol: as §1

Serratia X99 = test system: Serratia X99
Protocol: as §1

Shig sonn. N9 = test system: Shig sonn. N9
Protocol: as §1

[10] = test system: Staphylococcus aureus NRRL X1.1
Protocol: as §1

[11] = test system: Staphylococcus aureus S13E
Protocol: as §1

[12] = test system: Staphylococcus aureus V41
Protocol: as §1

[13] = test system: Staphylococcus aureus X400
Protocol: as §1

[14] = test system: Staphylococcus epidermidis 222
Protocol: as §1

[15] = test system: Staphylococcus epidermidis EPI270
Protocol: as §1

[16] = test system: Staphylococcus pneumoniae Park 1
Protocol: as §1

[17] = test system: Staphylococcus pyogenes C203
Protocol: as §1

[18] = Klebsiella aerogenes, read-out: MIC

N[C@@H](C(=O)N[C@@H]1C(=O)N2C(C(=O)O)=C(C(F)(F)F)CC[C@H]12)c1ccc(F)cc1 [Compound 3, [6R,7S]-7-β-[D-α-(amino)-4-fluorophenylacetylamino]-3-trifluoromethyl-1-carba-1-dethia-3-cephem-4-carboxylic acid]
MIC (Acom AC12; read-out: MIC): 64 µg/mL (≈ 159 µM)
MIC (Citro CF17; read-out: MIC): 8 µg/mL (≈ 19.9 µM)
MIC [1, 18]: 8 µg/mL (≈ 19.9 µM)
MIC [2, 18]: 8 µg/mL (≈ 19.9 µM)
MIC ([3]; read-out: MIC): 8 µg/mL (≈ 19.9 µM)
MIC (Enterobacter cloacae EB5; read-out: MIC): 8 µg/mL (≈ 19.9 µM)
MIC ([4]; read-out: MIC): 32 µg/mL (≈ 79.7 µM)
MIC (Enterococcus faecium X66; read-out: MIC): 32 µg/mL (≈ 79.7 µM)
MIC (Escherichia coli EC14; read-out: MIC): 1 µg/mL (≈ 2.49 µM)
MIC (Escherichia coli N10; read-out: MIC): 4 µg/mL (≈ 9.97 µM)
MIC (Escherichia coli TEM; read-out: MIC): 1 µg/mL (≈ 2.49 µM)
MIC ([5]; read-out: MIC): 1 µg/mL (≈ 2.49 µM)
MIC ([6]; read-out: MIC): 0.5 µg/mL (≈ 1.25 µM)
MIC ([7]; read-out: MIC): 8 µg/mL (≈ 19.9 µM)
MIC ([8]; read-out: MIC): 0.5 µg/mL (≈ 1.25 µM)
MIC ([9]; read-out: MIC): 1 µg/mL (≈ 2.49 µM)
MIC (Morg morg PR15; read-out: MIC): 16 µg/mL (≈ 39.9 µM)
MIC (Proteus incon PR33; read-out: MIC): 8 µg/mL (≈ 19.9 µM)
MIC (Proteus rett C24; read-out: MIC): 8 µg/mL (≈ 19.9 µM)
MIC (Salmonella 1335; read-out: MIC): 2 µg/mL (≈ 4.98 µM)
MIC (Salmonella X514; read-out: MIC): 0.5 µg/mL (≈ 1.25 µM)
MIC (Serratia SE3; read-out: MIC): 32 µg/mL (≈ 79.7 µM)
MIC (Serratia X99; read-out: MIC): 16 µg/mL (≈ 39.9 µM)
MIC (Shig sonn. N9; read-out: MIC): 2 µg/mL (≈ 4.98 µM)
MIC ([10]; NRRLX1.1, read-out: MIC): 1 µg/mL (≈ 2.49 µM)
MIC [11]: 32 µg/mL (≈ 79.7 µM)
MIC ([12]; read-out: MIC): 16 µg/mL (≈ 39.9 µM)
MIC ([13]; read-out: MIC): 64 µg/mL (≈ 159 µM)
MIC ([14]; read-out: MIC): 4 µg/mL (≈ 9.97 µM)
MIC ([15]; read-out: MIC): 4 µg/mL (≈ 9.97 µM)
MIC ([16]; PARK1, read-out: MIC): 0.25 µg/mL (≈ 0.623 µM)
MIC ([17]; read-out: MIC): 0.06 µg/mL (≈ 0.15 µM)

CCS(=O)(=O)Nc1cccc(C(N)C(=O)N[C@@H]2C(=O)N3C(C(=O)O)=C(C(F)(F)F)CC[C@H]23)c1 (stereo partly shown) [Compound 6]
MIC (Acom AC12): 64 µg/mL (≈ 130 µM)
MIC (Citro CF17): 32 µg/mL (≈ 65.2 µM)
MIC [1]: 16 µg/mL (≈ 32.6 µM)
MIC [2]: 16 µg/mL (≈ 32.6 µM)
MIC [3]: 32 µg/mL (≈ 65.2 µM)
MIC (Enterobacter cloacae EB5): 32 µg/mL (≈ 65.2 µM)
MIC [4]: 32 µg/mL (≈ 65.2 µM)
MIC (Enterococcus faecium X66): 64 µg/mL (≈ 130 µM)
MIC (Escherichia coli EC14): 1 µg/mL (≈ 2.04 µM)
MIC (Escherichia coli N10): 8 µg/mL (≈ 16.3 µM)
MIC (Escherichia coli TEM): 1 µg/mL (≈ 2.04 µM)
MIC [5]: 4 µg/mL (≈ 8.16 µM)
MIC [6]: 1 µg/mL (≈ 2.04 µM)
MIC [7]: 32 µg/mL (≈ 65.2 µM)
MIC [8]: 0.25 µg/mL (≈ 0.51 µM)
MIC [9]: 1 µg/mL (≈ 2.04 µM)
MIC (Morg morg PR15): 16 µg/mL (≈ 32.6 µM)
MIC (Proteus incon PR33): 16 µg/mL (≈ 32.6 µM)
MIC (Proteus rett C24): 32 µg/mL (≈ 65.2 µM)
MIC (Salmonella 1335): 8 µg/mL (≈ 16.3 µM)
MIC (Salmonella X514): 1 µg/mL (≈ 2.04 µM)
MIC (Serratia SE3): 128 µg/mL (≈ 261 µM)
MIC (Serratia X99): 64 µg/mL (≈ 130 µM)
MIC (Shig sonn. N9): 4 µg/mL (≈ 8.16 µM)
MIC [10]: 4 µg/mL (≈ 8.16 µM)
MIC [11]: 32 µg/mL (≈ 65.2 µM)
MIC [12]: 8 µg/mL (≈ 16.3 µM)
MIC [13]: 32 µg/mL (≈ 65.2 µM)
MIC [14]: 4 µg/mL (≈ 8.16 µM)
MIC [15]: 8 µg/mL (≈ 16.3 µM)
MIC [16]: 0.125 µg/mL (≈ 0.255 µM)
MIC [17]: 0.06 µg/mL (≈ 0.122 µM)
